Test results as given in patent publication US20070081967A1, “Revitalizing hair follicles with total parenteral nutrition or hyperalimentation for maximum hair growth” (priority 2005, published 2007).
“Also recorded” adds a separate entry of the source.

Columns and labels:
[1] = tested on: alopecia; conditions: cited from earlier work
[2] = Solubility of ingredients in solvents during preparation; conditions: qualitative
Protocol: 3 grams of azelaic acid was ground up into a powder from “hairs” of this dicarboxylic acid. […] Next, 50 mg of vinpocetine is added to the mortar and also ground to a powder. The use of 10 mg tablets of vinpocetine can be used if the raw material in not available. […] At this point 26 cc (or ml) of isopropyl alcohol is added to the mortar and mixed to form the first suspension. […] These two powders are soluble in water which 5 ml of sterile water is added and stirred. At the point the two products can be combines with the final addition of 12 ml of propylene glycol. […] The final volume of 60 ml can be achieved by the “qs” or “adding up to” the 60 ml mark with sterile water.

| SMILES | time to loss of new hair after treatment is stopped ([1]; after finasteride treatment is stopped) [year] | time to occurrence of hair growth ([1]; balding men, after start of use) | success rate for treating alopecia ([1]; reported success rate) [%] | solubility in isopropyl alcohol [2] | solubility in organic solvents ([2]; solvents named in value) |
| --- | --- | --- | --- | --- | --- |
| CC(C)(C)NC(=O)[C@H]1CC[C@H]2[C@@H]3CC[C@H]4NC(=O)C=C[C@]4(C)[C@H]3CC[C@]12C [Finasteride] | ≤ 1 | about 3 months | 40 | – | – |
| CCOC(=O)C1=C[C@]2(CC)CCCN3CCc4c(n1c1ccccc41)[C@@H]32 [Vinpocetine, 14-ethoxycarbonyl-3 alpha, 16 alpha-ethyl-14, 15-ebumamine] | – | – | – | slightly soluable | only soluable in DMSO, 100% ethanol or acetone; also recorded: only soluble in DMSO, 100% ethanol or acetone |
